Patent publication US20130178609A1, “MODULAR CONSTRUCTION OF LIPOPHOSPHOLIPIDS” (Centre National de la Recherche Scientifique - CNRS, priority 2010, published 2013)
Where “and” joins values, the source holds several entries; their conditions need not be identical. Equal entries are not always repeated.

Assay: Fluorescence excitation/emission maxima and molar absorption of the fluorescent phospholipids in EtOH
Format: physicochemical

λmax,em: 425 nm and 479 nm
λmax,exc: 349 nm and 412 nm
Compound: CCCCCCCC/C=C\CCCCCCCCOP(=O)(NCc1cn(-c2cc3ccc(O)cc3oc2=O)nn1)OCCCCCCCC/C=C\CCCCCCCC [Compound 4a]
